As usually defined, the inhibition is the relative decrease from the control value, in per cent. The chromatographic logP is lipophilicity estimated from chromatographic retention. Read a high chromatographic logP as a more lipophilic compound.

SMILES strings stand for the structures.

The subject of series [1] is Colletotrichum lindemuthianum. As to the kind of experiment: B-8. Colletotrichum lindemuthianum in vitro cell test. Format: cell-based. As to conditions: 144 h, 20 ppm of active ingredient, 6 days incubation, liquid culture, absorbance, read-out: efficacy (inhibition of fungal growth). The method in brief:
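Spore suspension of C. lindemuthianum in liquid medium exposed to DMSO-solubilized compounds (final DMSO ≤1%) for 6 days. Mycelial growth read by absorbance, with inhibition calculated relative to compound-free control wells.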

A further series concerns Alternaria brassicae. As to the kind of experiment: In vivo preventive test on Alternaria brassicae (leaf spot on radish or cabbage). To be noted: 500 ppm of active ingredient, preventive spray on radish or cabbage, evaluated 3 to 4 days after inoculation, read-out: efficacy. The method in brief: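 Young radish or cabbage plants were sprayed with compound dissolved in DMSO/acetone/Tween 80 and diluted in water; controls received solvent only. Inoculation by spraying A. brassicae spore suspension 24 h later, then 3–4 days at 20 °C and 100% relative humidity.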

Series [2] concerns Pyrenophora teres. The series is described as follows: B-10. Pyrenophora teres in vitro cell test. It counts as cell-based. As to conditions: 144 h, 20 ppm of active ingredient, 6 days incubation, liquid culture, absorbance, read-out: efficacy (inhibition of fungal growth). Summed up: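 Liquid-culture assay on a P. teres spore suspension with compounds added to the medium from DMSO solutions, final DMSO ≤1%. Mycelium growth read spectrometrically after 6 days. Inhibition calculated from absorbance against untreated control wells.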

The test system of series [3] is Botrytis cinerea. As to the kind of experiment: In vivo preventive test on Botrytis cinerea (grey mould). As to conditions: 500 ppm of active ingredient, preventive spray on gherkin or cabbage, evaluated 4 to 5 days after inoculation, read-out: efficacy. The method in brief:
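Young gherkin or cabbage plants were sprayed with compound in DMSO/acetone/Tween 80 diluted in water, then inoculated 24 hours later with a B. cinerea spore suspension. Incubation lasted 4 to 5 days: gherkin at 17° C., 90% relative humidity; cabbage at 20° C., 100% relative humidity.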

In series [4] the test system is Pyrenophora teres. The series is described as follows: In vivo preventive test on Pyrenophora teres (net blotch on barley). To be noted: 240 h, 500 ppm of active ingredient, preventive spray on barley, evaluated 10 days after inoculation, read-out: efficacy. As for the experimental part: B-3. In Vivo Preventive Test on Pyrenophora Teres (Net Blotch on Barley) [table] The active ingredients were made soluble and homogenized in a mixture of Dimethyl sulfoxide/Acetone/Tween® 80 and then diluted in water to the desired concentration. The young plants of barley were treated by spraying the active ingredient prepared as described above. Control plants were treated only with an aqueous solution of Acetone/Dimethyl sulfoxide/Tween® 80. After 24 hours, the plants were contaminated by spraying the leaves with an aqueous suspension of Pyrenophora teres spores. The contaminated barley plants were incubated for 48 hours at 20° C. and at 100% relative humidity and then for 8 days at 20° C. and at 70-80% relative humidity.

A further series deals with Sphaerotheca fuliginea. As to the kind of experiment: In vivo preventive test on Sphaerotheca fuliginea (powdery mildew on cucurbits). To be noted: Podosphaera fuliginea, 192 h; 500 ppm of active ingredient; preventive spray on gherkin; evaluated 8 days after inoculation; read-out: efficacy. The method in brief:
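Young gherkin plants were sprayed with compound in DMSO/acetone/Tween 80 diluted in water. They were inoculated 24 h later with a spore suspension of Sphaerotheca fuliginea. Plants were then kept for 8 days at 20 °C and 70–80% relative humidity.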

In another series the test system is Alternaria alternata. As to the kind of experiment: Alternaria alternata in vitro cell test. Format: cell-based. To be noted: 120 h, 20 ppm of active ingredient, liquid culture, 5 days incubation, spectrometric measurement of mycelium growth, read-out: efficacy (inhibition of fungal growth). Summed up: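 Liquid culture assay in which A. alternata spores in medium received DMSO-solubilized compound (final DMSO ≤1%). After 5 days, mycelium growth was measured spectrometrically. Inhibition was calculated against fungicide-free control wells.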

The subject of series [5] is Botrytis cinerea. The series is described as follows: B-11. Botrytis cinerea in vitro cell test. It counts as cell-based. To be noted: 144 h, 20 ppm of active ingredient, 6 days incubation, liquid culture, absorbance, read-out: efficacy (inhibition of fungal growth). The method in brief:
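B. cinerea spores were grown in liquid culture with compound (DMSO ≤1% final). Mycelium growth was measured spectrometrically after 6 days, with inhibition taken as absorbance relative to untreated control wells.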

Series [6] is described as follows: Measurement of Log P values by HPLC on reversed phase columns (EEC directive 79/831 Annex V.A8). It counts as physicochemical. To be noted: reversed phase HPLC column. The method in brief:
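Reversed-phase HPLC with UV detection per EEC 79/831 Annex V.A8, linear 10–95% acetonitrile gradient. Aqueous eluent: 0.1% formic acid (acidic), 0.001 M ammonium acetate (neutral), or 0.1% phosphoric acid (acidic); multiple values in one method joined by "+".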

The test system of series [7] is Colletotrichum lindemuthianum. As to the kind of experiment: In vivo preventive test on Colletotrichum lindemuthianum (leaf spot on bean). To be noted: 168 h, 500 ppm of active ingredient, preventive spray on bean, evaluated 7 days after inoculation, read-out: efficacy. As for the experimental part: B-5. In Vivo Preventive Test on Colletotrichum lindemuthianum (Leaf Spot on Bean) [table] The active ingredients were made soluble and homogenized in a mixture of Dimethyl sulfoxide/Acetone/Tween® 80 and then diluted in water to the desired concentration. The young plants of bean were treated by spraying the active ingredient prepared as described above. Control plants were treated only with an aqueous solution of Acetone/Dimethyl sulfoxide/Tween® 80. After 24 hours, the plants were contaminated by spraying the leaves with an aqueous suspension of Colletotrichum lindemuthianum spores. The contaminated bean plants were incubated for 24 hours at 20° C. and at 100% relative humidity and then for 6 days at 20° C. and at 90% relative humidity.

Where [8] appears, read: method [a]: LC-UV, acidic range, 0.1% formic acid in water and acetonitrile as eluent.

Take `Cc1ccc(C(F)(F)CNC(=O)c2c(Oc3cccc(C(F)(F)F)c3)cnc3ccoc23)c(C)c1` [I-066, N-[2-(2,4-dimethylphenyl)-2,2-difluoro-ethyl]-6-[3-(trifluoro-methyl)phenoxy]furo[3,2-b]pyridine-7-carboxamide]: the inhibition at 20 ppm (in [1]; with Pyrenophora teres [2]; in the series with Alternaria alternata; in the series on Botrytis cinerea [5]) was 90 to 100% throughout. Besides, the pest or weed control at 500 ppm is 90 to 100% in the series on Alternaria brassicae, 90 to 100% with Botrytis cinerea [3], 70 to 79% in the series on Pyrenophora teres [4] and 90 to 100% with Sphaerotheca fuliginea. The chromatographic logP in [6] (setting [8]) worked out at 4.14.
Regarding `O=C(NCC(F)(F)c1ccc(Br)cc1Cl)c1c(Oc2cccc(C(F)(F)F)c2)cnc2c1OCCO2` [I-107, N-[2-(4-bromo-2-chloro-phenyl)-2,2-difluoro-ethyl]-7-[3-(tri-fluoromethyl)phenoxy]-2,3-dihydro-[1,4]dioxino[2,3-b]pyridine-8-carboxamide], the inhibition at 20 ppm (in series [1]; in the series with Alternaria alternata) was 90 to 100% each time. For the same compound, the pest or weed control at 500 ppm in the series with Alternaria brassicae was in the range of 90 to 100%; with Botrytis cinerea [3], 90 to 100%; in the series on Pyrenophora teres [4], 80 to 89%; in [7] it was 90 to 100%; with Sphaerotheca fuliginea, 90 to 100%. The chromatographic logP in [6] (setting [8]) stood at 3.94.
For the compound `Cc1ccc(C(F)(F)CNC(=O)c2c(Oc3cccc(C(F)F)c3)nnc3ccccc23)c(C)c1` [I-033], the inhibition at 20 ppm (in series [1]; in the series with Alternaria alternata) was 90 to 100% each time. The pest or weed control at 500 ppm in the series with Alternaria brassicae fell in the range of 90 to 100%; with Botrytis cinerea [3], 90 to 100%; with Pyrenophora teres [4] it was 70 to 79%; in series [7], 80 to 89%; in the series on Sphaerotheca fuliginea, 90 to 100%. The compound also returned a chromatographic logP in series [6] (setting [8]) of 3.92.
Take `Cc1ccc(CCNC(=O)c2c(Oc3cccc(C(F)(F)F)c3)nnc3ccccc23)c(C)c1` [I-230]: the inhibition at 20 ppm (in series [1]; in the series with Alternaria alternata; in the series with Botrytis cinerea [5]) was 90 to 100% throughout. In addition, the pest or weed control at 500 ppm in the series with Alternaria brassicae fell in the range of 90 to 100%; in the series with Botrytis cinerea [3] it was 90 to 100%; in the series with Pyrenophora teres [4] it was 80 to 89%; in the series on Sphaerotheca fuliginea, 90 to 100%.
For the compound `Cc1ccc2c(c1)CCC[C@@H]2NC(=O)c1c(Oc2cccc(C(F)(F)F)c2)cnc2c1OCCO2` (racemic) [I-112], the inhibition at 20 ppm (in [1]; with Alternaria alternata) was 90 to 100% in each case. The pest or weed control at 500 ppm with Alternaria brassicae was in the range of 90 to 100%; in the series on Botrytis cinerea [3], 90 to 100%; with Pyrenophora teres [4], 80 to 89%; in series [7], 90 to 100%; with Sphaerotheca fuliginea, 90 to 100%. Also, the chromatographic logP in [6] (setting [8]) came to 3.8; in series [6] (method [b]: LC-UV, neutral range, 0.001 molar ammonium acetate solution in water and acetonitrile as eluent), 3.79.
With `Cc1ccc(C(F)(F)CNC(=O)c2c(Oc3cccc(C(F)(F)F)c3)nnc3c2CCCCC3)c(C)c1` [I-113, N-[2-(2,4-dimethylphenyl)-2,2-difluoro-ethyl]-3-[3-(trifluoro-methyl)phenoxy]-6,7,8,9-tetrahydro-5H-cyclohepta[c]pyridazine-4-carboxamide], the inhibition at 20 ppm (in series [1]; with Alternaria alternata) was 90 to 100% throughout. In addition, the pest or weed control at 500 ppm in the series with Alternaria brassicae fell in the range of 90 to 100%; with Botrytis cinerea [3], 90 to 100%; in the series with Pyrenophora teres [4] it was 70 to 79%; in series [7] it was 80 to 89%; in the series with Sphaerotheca fuliginea, 90 to 100%. In series [6] (setting [8]), this compound gave a chromatographic logP of 4.28.
As to `Cc1ccc(CCNC(=O)c2c(Oc3cccc(C(F)(F)F)c3)nnc3c2OCCO3)c(C)c1` [I-104], the inhibition at 20 ppm in [1] fell in the range of 80 to 89%; in the series on Alternaria alternata it was 90 to 100%. Besides, the pest or weed control at 500 ppm in the series with Alternaria brassicae lay in the range of 90 to 100%; in the series with Botrytis cinerea [3], 90 to 100%; in the series on Pyrenophora teres [4], 80 to 89%; in [7], 90 to 100%; in the series with Sphaerotheca fuliginea, 90 to 100%. In [6] (setting [8]), the chromatographic logP came to 3.28.
With `Cc1ccc(CCNC(=O)c2c(Oc3cccc(C(F)(F)F)c3)cnc3c2OCCO3)c(C)c1` [I-110], the inhibition at 20 ppm (in series [1]; in the series with Alternaria alternata) was 90 to 100% in each case. Also, the pest or weed control at 500 ppm (in the series with Alternaria brassicae; with Botrytis cinerea [3]; with Pyrenophora teres [4]; in series [7]; in the series on Sphaerotheca fuliginea) was 90 to 100% throughout. The compound also displayed a chromatographic logP in series [6] (setting [8]) of 3.6.
`O=C(NC[C@H](F)c1ccc(Cl)cc1Cl)c1c(Oc2cccc(C(F)(F)F)c2)cnc2c1OCCO2` (racemic) [I-108]: the inhibition at 20 ppm (in [1]; with Alternaria alternata) was 90 to 100% throughout. The pest or weed control at 500 ppm (in the series with Alternaria brassicae; with Botrytis cinerea [3]; in the series with Pyrenophora teres [4]; in series [7]; in the series on Sphaerotheca fuliginea) was 90 to 100% in each case. Besides, the chromatographic logP in series [6] (setting [8]) stood at 3.77.
On to `Cc1ccc(C(F)(F)CNC(=O)c2c(Oc3cccc(C4CC4)c3F)nnc3c2N[C@@H](O)CC3)c(C)c1` (racemic) [I-116], for which the inhibition at 20 ppm (in series [1]; in the series on Alternaria alternata) was 90 to 100% each time. Besides, the pest or weed control at 500 ppm was in the range of 90 to 100% in the series with Alternaria brassicae; 90 to 100% in the series on Botrytis cinerea [3]; 80 to 89% in the series with Pyrenophora teres [4]; 90 to 100% in series [7]; 90 to 100% in the series on Sphaerotheca fuliginea. For the same compound, the chromatographic logP in [6] (setting [8]) amounted to 3.74.
Turning to `Cc1ccc([C@@H](F)CNC(=O)c2c(Oc3cccc(Cl)c3)nnc3ccccc23)cc1C` (racemic) [I-048], the inhibition at 20 ppm (in [1]; in the series on Alternaria alternata; with Botrytis cinerea [5]) was 90 to 100% each time. The pest or weed control at 500 ppm (in the series with Alternaria brassicae; in the series on Botrytis cinerea [3]; with Pyrenophora teres [4]; in series [7]) was 90 to 100% each time. The same compound came in with a chromatographic logP in series [6] (setting [8]) of 4.05.
`Cc1ccc(C(F)(F)CNC(=O)c2c(Oc3cccc(C4CC4)c3)nnc3ccccc23)c(C)c1` [I-218]: the inhibition at 20 ppm (in [1]; in the series with Pyrenophora teres [2]; in the series with Alternaria alternata; in the series on Botrytis cinerea [5]) was 90 to 100% in each case. For the same compound, the pest or weed control at 500 ppm lay within 90 to 100% with Alternaria brassicae, 90 to 100% in the series with Botrytis cinerea [3], 80 to 89% in the series with Pyrenophora teres [4] and 90 to 100% in series [7]. The compound also came in with a chromatographic logP in series [6] (setting [8]) of 4.45.

The record behind these values is US20230192617A1, “AZABICYCLIC(THIO)AMIDES AS FUNGICIDAL COMPOUNDS” (Bayer CropScience Aktiengesellschaft, priority 2020, published 2023).
